Test results reported in PubChem BioAssay (NCI).
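A five-concentration, 48-hour dose response in 96-well plates underlies each endpoint, interpolated linearly between surrounding concentrations. The concentration for full growth arrest is given as TGI.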

How the values were obtained:
Assay in all cases: inhibition of tumour cell growth, NCI panel, 48 h
COLO 205 colon = tested on: COLO 205 colon
SW-620 colon = tested on: SW-620 colon
SNB-19 CNS = tested on: SNB-19 CNS
MALME-3M melanoma = tested on: MALME-3M melanoma
PC-3 prostate = tested on: PC-3 prostate
SK-OV-3 ovarian = tested on: SK-OV-3 ovarian
HS 578T breast = tested on: HS 578T breast
SN12C renal = tested on: SN12C renal
UO-31 renal = tested on: UO-31 renal
T-47D breast = tested on: T-47D breast
HOP-62 NSCLC = tested on: HOP-62 NSCLC
U251 CNS = tested on: U251 CNS
NCI-H23 lung = tested on: NCI-H23 lung
HL-60(TB) leukemia = tested on: HL-60(TB) leukemia
OVCAR-3 ovarian = tested on: OVCAR-3 ovarian
NCI-H522 lung = tested on: NCI-H522 lung
NCI/ADR-RES ovarian = tested on: NCI/ADR-RES ovarian
RPMI-8226 leukemia = tested on: RPMI-8226 leukemia
UACC-62 melanoma = tested on: UACC-62 melanoma
OVCAR-5 ovarian = tested on: OVCAR-5 ovarian
SR leukemia = tested on: SR leukemia
DU-145 prostate = tested on: DU-145 prostate
MCF7 breast = tested on: MCF7 breast
ACHN renal = tested on: ACHN renal
786-0 renal = tested on: 786-0 renal
SF-295 CNS = tested on: SF-295 CNS
K-562 leukemia = tested on: K-562 leukemia
HOP-92 NSCLC = tested on: HOP-92 NSCLC
NCI-H226 lung = tested on: NCI-H226 lung
UACC-257 melanoma = tested on: UACC-257 melanoma
OVCAR-4 ovarian = tested on: OVCAR-4 ovarian
A498 renal = tested on: A498 renal
SF-539 CNS = tested on: SF-539 CNS
NCI-H460 lung = tested on: NCI-H460 lung
SK-MEL-2 melanoma = tested on: SK-MEL-2 melanoma
OVCAR-8 ovarian = tested on: OVCAR-8 ovarian
RXF 393 renal = tested on: RXF 393 renal
MDA-MB-231 breast = tested on: MDA-MB-231 breast
IGROV1 ovarian = tested on: IGROV1 ovarian
HCT-15 colon = tested on: HCT-15 colon
MDA-MB-435 = tested on: MDA-MB-435
SK-MEL-28 melanoma = tested on: SK-MEL-28 melanoma
TK-10 renal = tested on: TK-10 renal
HT29 colon = tested on: HT29 colon
MOLT-4 leukemia = tested on: MOLT-4 leukemia
SNB-75 CNS = tested on: SNB-75 CNS
HCT-116 colon = tested on: HCT-116 colon
BT-549 breast = tested on: BT-549 breast
M14 melanoma = tested on: M14 melanoma
LOX IMVI melanoma = tested on: LOX IMVI melanoma
KM12 colon = tested on: KM12 colon
SF-268 CNS = tested on: SF-268 CNS
SK-MEL-5 melanoma = tested on: SK-MEL-5 melanoma
A549 NSCLC = tested on: A549 NSCLC
CAKI-1 renal = tested on: CAKI-1 renal

For `O=C(CC(Cl)(Cl)C(Cl)(Cl)Cl)c1ccccc1`, the TGI (COLO 205 colon) was 13.2 µM, the TGI (SW-620 colon) was 12.2 µM and the TGI (SNB-19 CNS) was 39.2 µM. It also gave a TGI (MALME-3M melanoma) of 8.91 µM, a TGI (PC-3 prostate) of 29.1 µM and a TGI (SK-OV-3 ovarian) of 38.2 µM. For the same compound, the TGI (HS 578T breast) was 56.2 µM, the TGI (SN12C renal) was 3.09 µM and the TGI (UO-31 renal) was 14.5 µM. For the same compound, the TGI (T-47D breast) was 7.08 µM, the TGI (HOP-62 NSCLC) was 16.4 µM and the TGI (U251 CNS) was 18.3 µM. For the same compound, the TGI (NCI-H23 lung) was 20.5 µM, the TGI (HL-60(TB) leukemia) was 29.9 µM and the TGI (OVCAR-3 ovarian) was 4.33 µM. The TGI (NCI-H522 lung) was 7.3 µM, the TGI (NCI/ADR-RES ovarian) was 43.9 µM and the TGI (RPMI-8226 leukemia) was 6.09 µM. It also gave a TGI (UACC-62 melanoma) of 6.56 µM, a TGI (OVCAR-5 ovarian) of 25.8 µM and a TGI (SR leukemia) of 4.37 µM. The TGI (DU-145 prostate) was 15.1 µM, the TGI (MCF7 breast) was 23.6 µM and the TGI (ACHN renal) was 5.29 µM. The TGI (786-0 renal) was 11.4 µM, the TGI (SF-295 CNS) was 19.4 µM and the TGI (K-562 leukemia) was 4.57 µM. The TGI (HOP-92 NSCLC) was 59.5 µM, the TGI (NCI-H226 lung) was 16.2 µM and the TGI (UACC-257 melanoma) was 3.81 µM. The TGI (OVCAR-4 ovarian) was 5.67 µM, the TGI (A498 renal) was 34.6 µM and the TGI (SF-539 CNS) was 31.3 µM. It also gave a TGI (NCI-H460 lung) of 32.5 µM, a TGI (SK-MEL-2 melanoma) of 32.3 µM and a TGI (OVCAR-8 ovarian) of 8.53 µM. It also gave a TGI (RXF 393 renal) of 4.25 µM, a TGI (MDA-MB-231 breast) of 5.48 µM and a TGI (IGROV1 ovarian) of 18.3 µM. The TGI (HCT-15 colon) was 4.56 µM, the TGI (MDA-MB-435) was 5.34 µM and the TGI (SK-MEL-28 melanoma) was 5.3 µM. The TGI (TK-10 renal) was 18.4 µM, the TGI (HT29 colon) was 4.72 µM and the TGI (MOLT-4 leukemia) was 5.02 µM. For the same compound, the TGI (SNB-75 CNS) was 29.3 µM, the TGI (HCT-116 colon) was 4.91 µM and the TGI (BT-549 breast) was 39.9 µM. It also gave a TGI (M14 melanoma) of 7.4 µM, a TGI (LOX IMVI melanoma) of 3.74 µM and a TGI (KM12 colon) of 14.8 µM. For the same compound, the TGI (SF-268 CNS) was 55.4 µM, the TGI (SK-MEL-5 melanoma) was 24.3 µM and the TGI (A549 NSCLC) was 39.1 µM. It also gave a TGI (CAKI-1 renal) of 4.39 µM.
